Measurements from paper PMC5665424, “Software-aided approach to investigate peptide structure and metabolic susceptibility of amide bonds in peptide drugs based on high resolution mass spectrometry” (PLoS ONE, 2017).
“Also recorded” adds a separate entry of the source. Blank lines part the entries; values can stand above or below the molecule they belong to.

Experiments:
pancreatic elastase = target: T1, pancreatic elastase (Sus scrofa, UniProt P00772); assay: Incubation with pancreatic elastase in simulated intestinal fluid, LC-HRMS; type: in vitro ADME, porcine; conditions: elastase 500 μg/mL in SIF pH 7.4-7.6, 10 μM peptide, 37°C, 0, 5, 15, 45, 120 min, internal standard melanotan, Fig 11c
T1 construct: porcine pancreas; purchased Sigma (Sigma Aldrich) E0258; host or cells: porcine pancreas (tissue-derived)
Protocol: (§1) Incubations with dataset-1 were performed using isolated enzymes. […] All incubations were conducted at 37°C.
Supporting Table 1: Incubation conditions and proteases characteristics
Chymotrypsin Trypsin Elastase Pepsin
αChymotrypsin from Trypsin from Elastase from Pepsin from porcine
Protease bovine pancreas, bovine pancreas, porcine pancreas, gastric mucosa,
Internal Melanotan II acetate salt,
Mobile Phase Water +0.1% formic acid
Mobile Phase Acetonitrile+0.1% formic acid […]
Quadrupole -Orbitrap Mass Spectrometer

[1] = target: T2, dipeptidyl peptidase-4 (DPP-4) (Homo sapiens, UniProt P27487); assay: Incubation with dipeptidyl peptidase-4 in Hank's buffered salt solution, LC-HRMS; type: in vitro ADME; conditions: DPP-4 2 μg/mL in Hank's buffered salt solution
T2 construct: purchased Sigma D3446; host or cells: Sf9 cells
Protocol: as §1
(§2) The dataset-2 peptide incubations were performed at Roche Innovation Center Basel F. Hoffmann-La Roche Ltd., (Hoffmann-La Roche, Basel, Switzerland) using isolated enzymes. For both DPP-4 and NEP incubations, a solution of the respective enzyme in Hank’s buffered salt solution was pre-incubated at 37°C for 3 to 5 min, in 96-well plate Nunc (Thermo Scientific, 163320) before the addition of 30 μL of test substance to give final concentrations of 2 μg/mL DPP-4 or 2 μg/mL NEP. Negative control samples were prepared under the same conditions (see above), containing each enzyme but without adding test compound. […] Reactions were started with the addition of […] and then quenched at each time point with 75 μL cold acetonitrile containing 1% FA followed by thorough mixing. The samples were centrifuged at 4°C for 15 min at 14,000g, and the supernatant was collected. The metabolite profile was immediately analyzed.
(§3) To generate dataset-2, a Thermo Scientific Dionex UltiMate 3000 RS UPLC system in combination with a Pal autosampler (CTC Analytics AG, Zwingen, Switzerland) was used. Chromatographic separation was performed using an Acquity CSHT Phenyl-Hexyl Column (1.7 μm, 2.1 x 100 mm). The mobile phases consisted of A: H2O/0.1% FA and B: methanol/0.1% FA. […]

neprilysin (NEP) = neprilysin (NEP) (Homo sapiens, UniProt P08473); assay: Incubation with neprilysin in Hank's buffered salt solution, LC-HRMS; conditions: NEP 2 μg/mL in Hank's buffered salt solution, 37°C, 2, 4, 8, 24 hr (GLP-1 0, 5, 15, 30, 60 min), Fig 12b
Protocol: as §1, §2, §3

chymotrypsin = chymotrypsin (Bos taurus, UniProt P00766); assay: Incubation with chymotrypsin in simulated intestinal fluid, LC-HRMS; conditions: for site of cleavage (amide hydrolysis) by chymotrypsin: chymotrypsin 500 μg/mL in SIF, 10 μM peptide, 37°C, up to 120 min, metabolite structures from LC-HRMS/MS (Mass-MetaSite)
Protocol: (§4) Incubations with dataset-1 were performed using isolated enzymes. We investigated serine proteases like trypsin, chymotrypsin, and pancreatic elastase (E 3.4.21.1, E 3.4.21.4, E 3.4.21.36) at a concentration of 500 μg/mL in simulated intestinal fluid (SIF) and the aspartic protease pepsin (E 3.4.23.1) at a concentration of 500 μg/mL in simulated gastric fluid (SGF). Proteases were purchased from Sigma Aldrich and SIF and SGF were purchased from RICCA Chemical Company (Arlington, TX, USA). […] All incubations were conducted at 37°C.
Negative control samples were prepared under the same conditions of the incubation (see above), containing each enzyme but without adding probe compounds. Probe compounds were added to 96-well plates (Micronic 0.75 mL V-bottom) using a Hewlett Packard HPD300e. […] Each well was a time point, with five timepoints (0, 5, 15, 45 and 120 min) per compound per protease. Incubations were carried out using a Hamilton MicroLab STAR Plus liquid-handler to initiate, conduct and stop incubation reactions within a single automated method. The incubation plates were placed in heated shakers present on the deck of the liquid-handler and operated at 37°C and 400 rpm shaking speed. Reactions were started with the addition of the enzyme at the appropriate time to allow for all reactions to be quenched at a single time. Incubation quenching was again carried out by the Hamilton STAR Plus with the addition of 100 μL of acetonitrile with 1% formic acid (FA) or 1% ammonium hydroxide (pepsin-only) and the internal standard (melanotan) at a concentration of 1 μM. Following reaction quenching, the samples were vortexed for approximately 2 min and the time zero sample was generated by aliquoting 50 nL of the appropriate stock compound into quenched control samples. The samples were then centrifuged in a Beckman Allegra 25R at 6000 rcf for 20 min at 10°C. Resulting supernatant was transferred to Eppendorf LoBind 96-well plates and 1 μL was injected onto a Waters Acquity BEH-C18 1 x 50 mm, 1.7 μm column via a Waters Acquity M-Class ultra-performance liquid chromatography (UPLC) autosampler. All time points were analyzed using a data-dependent MS/MS method.
For dataset-1, chromatographic separation of metabolites was performed using the ACQUITY UPLC system (Waters, Milford, MA, USA). The ACQUITY UPLC BEH C18 column (1.0 × 50 mm, 1.7 μm) was heated to 60°C. The mobile phase consisted of 0.1% FA in water (eluent A) and 0.1% formic acid in acetonitrile (eluent B) at a flow rate of 75 μL/min. The initial condition was 10% eluent B, which was maintained for 0.1 min. Eluent B was then increased via a linear gradient to 40% until 3.1 min and further increased to 90% via linear gradient to 3.6 min. Eluent B was then held at 90% until 4.0 min when it was ramped down to 10% by 4.05 min and held until the end of the run at 6 min. […] Full scan/data-dependent MS/MS analyses were run on a Thermo Scientific Q-Exactive Plus mass spectrometer operated in positive electrospray ionization (ESI) mode. The MS and MS/MS acquisition scans were operated with a resolution setting of 17,500 for both, with an automatic gain control (AGC) setting of 1E6 and maximum injection time of 100 ms for MS and AGC of 2E5 and max injection time of 50 ms for full scan/data-dependent MS/MS.

trypsin = target: T3, trypsin (Bos taurus, UniProt P00760); assay: Incubation with trypsin in simulated intestinal fluid, LC-HRMS
T3 sequence (P00760 24-246): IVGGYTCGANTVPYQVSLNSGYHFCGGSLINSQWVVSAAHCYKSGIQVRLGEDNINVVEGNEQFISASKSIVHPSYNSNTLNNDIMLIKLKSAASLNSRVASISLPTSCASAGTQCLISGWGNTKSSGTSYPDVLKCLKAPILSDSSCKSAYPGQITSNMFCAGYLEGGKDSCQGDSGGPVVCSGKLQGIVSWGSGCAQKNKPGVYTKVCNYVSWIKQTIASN
Protocol: as §4
Negative control samples were prepared under the same conditions of the incubation (see above), containing each enzyme but without adding probe compounds. Probe compounds were added to 96-well plates (Micronic 0.75 mL V-bottom) using a Hewlett Packard HPD300e. […] Each well was a time point, with five timepoints (0, 5, 15, 45 and 120 min) per compound per protease. Incubations were carried out using a Hamilton MicroLab STAR Plus liquid-handler to initiate, conduct and stop incubation reactions within a single automated method. The incubation plates were placed in heated shakers present on the deck of the liquid-handler and operated at 37°C and 400 rpm shaking speed. Reactions were started with the addition of the enzyme at the appropriate time to allow for all reactions to be quenched at a single time. Incubation quenching was again carried out by the Hamilton STAR Plus with the addition of 100 μL of acetonitrile with 1% formic acid (FA) or 1% ammonium hydroxide (pepsin-only) and the internal standard (melanotan) at a concentration of 1 μM. Following reaction quenching, the samples were vortexed for approximately 2 min and the time zero sample was generated by aliquoting 50 nL of the appropriate stock compound into quenched control samples. The samples were then centrifuged in a Beckman Allegra 25R at 6000 rcf for 20 min at 10°C. […] All time points were analyzed using a data-dependent MS/MS method. […]

Sequence of neprilysin (NEP) (P08473 whole entry): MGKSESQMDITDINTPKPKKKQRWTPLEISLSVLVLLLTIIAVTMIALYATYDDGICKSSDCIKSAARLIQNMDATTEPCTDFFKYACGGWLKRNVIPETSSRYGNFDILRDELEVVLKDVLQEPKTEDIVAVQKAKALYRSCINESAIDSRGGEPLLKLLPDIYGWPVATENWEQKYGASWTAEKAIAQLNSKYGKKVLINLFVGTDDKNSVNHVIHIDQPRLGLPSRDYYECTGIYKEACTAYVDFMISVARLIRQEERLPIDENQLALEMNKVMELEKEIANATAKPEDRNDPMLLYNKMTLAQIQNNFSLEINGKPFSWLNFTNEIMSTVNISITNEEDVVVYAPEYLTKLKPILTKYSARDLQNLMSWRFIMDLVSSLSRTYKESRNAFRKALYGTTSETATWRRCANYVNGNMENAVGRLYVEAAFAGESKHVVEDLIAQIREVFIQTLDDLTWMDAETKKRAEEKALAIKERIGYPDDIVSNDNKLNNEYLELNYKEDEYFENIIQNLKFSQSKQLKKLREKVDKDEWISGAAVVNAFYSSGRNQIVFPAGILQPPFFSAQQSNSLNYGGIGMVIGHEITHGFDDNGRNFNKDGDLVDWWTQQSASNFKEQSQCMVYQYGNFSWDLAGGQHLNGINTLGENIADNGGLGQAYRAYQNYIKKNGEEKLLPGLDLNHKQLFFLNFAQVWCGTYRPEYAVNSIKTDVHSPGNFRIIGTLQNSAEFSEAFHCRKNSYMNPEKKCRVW
T1 sequence (P00772 27-266): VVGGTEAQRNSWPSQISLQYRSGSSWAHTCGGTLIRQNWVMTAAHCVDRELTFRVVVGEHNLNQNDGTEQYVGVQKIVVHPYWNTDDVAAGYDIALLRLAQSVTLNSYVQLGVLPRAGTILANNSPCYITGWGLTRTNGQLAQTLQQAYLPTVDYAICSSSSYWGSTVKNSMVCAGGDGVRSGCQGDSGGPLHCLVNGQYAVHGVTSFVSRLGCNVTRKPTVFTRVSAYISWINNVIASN
T2 sequence (P27487 whole entry): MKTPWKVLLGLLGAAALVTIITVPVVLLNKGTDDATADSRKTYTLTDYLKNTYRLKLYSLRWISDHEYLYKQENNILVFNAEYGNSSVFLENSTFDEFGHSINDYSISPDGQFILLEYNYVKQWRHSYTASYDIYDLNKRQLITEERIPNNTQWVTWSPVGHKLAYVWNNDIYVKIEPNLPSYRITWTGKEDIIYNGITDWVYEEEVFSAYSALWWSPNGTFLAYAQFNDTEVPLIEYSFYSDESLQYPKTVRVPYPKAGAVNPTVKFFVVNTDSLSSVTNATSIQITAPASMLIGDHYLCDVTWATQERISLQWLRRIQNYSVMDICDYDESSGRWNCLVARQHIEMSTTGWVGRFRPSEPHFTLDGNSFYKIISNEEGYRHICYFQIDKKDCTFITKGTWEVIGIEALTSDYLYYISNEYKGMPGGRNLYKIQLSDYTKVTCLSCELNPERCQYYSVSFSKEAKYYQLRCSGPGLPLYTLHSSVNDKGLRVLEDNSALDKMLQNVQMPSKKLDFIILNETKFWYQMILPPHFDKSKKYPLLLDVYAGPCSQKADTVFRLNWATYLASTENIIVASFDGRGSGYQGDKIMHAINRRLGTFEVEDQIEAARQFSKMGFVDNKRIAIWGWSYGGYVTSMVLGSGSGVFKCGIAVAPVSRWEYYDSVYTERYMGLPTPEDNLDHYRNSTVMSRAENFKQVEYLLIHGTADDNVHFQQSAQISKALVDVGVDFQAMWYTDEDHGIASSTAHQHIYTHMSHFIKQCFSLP

Molecule: C[C@@H](O)[C@@H]1NC(=O)[C@H](CCCCN)NC(=O)[C@@H](Cc2c[nH]c3ccccc23)NC(=O)[C@H](Cc2ccccc2)NC(=O)[C@@H](NC(=O)[C@H](N)Cc2ccccc2)CSSC[C@@H](C(=O)N[C@H](CO)[C@@H](C)O)NC1=O [octreotide, Octreotide]
metabolic stability with pancreatic elastase: percent parent peptide remaining with respect to time, compared in words (pancreatic elastase): digested significantly faster than the larger secretin and calcitonin, but it was slower than oxytocin

Molecule: CCCCCCCCCCCCCCCC(=O)N[C@@H](CCC(=O)NCCCC[C@H](NC(=O)[C@H](C)NC(=O)[C@H](C)NC(=O)[C@H](CCC(N)=O)NC(=O)CNC(=O)[C@H](CCC(=O)O)NC(=O)[C@H](CC(C)C)NC(=O)[C@H](Cc1ccc(O)cc1)NC(=O)[C@H](CO)NC(=O)[C@H](CO)NC(=O)[C@@H](NC(=O)[C@H](CC(=O)O)NC(=O)[C@H](CO)NC(=O)[C@@H](NC(=O)[C@H](Cc1ccccc1)NC(=O)[C@@H](NC(=O)CNC(=O)[C@H](CCC(=O)O)NC(=O)[C@H](C)NC(=O)[C@@H](N)Cc1cnc[nH]1)[C@@H](C)O)[C@@H](C)O)C(C)C)C(=O)N[C@@H](CCC(=O)O)C(=O)N[C@@H](Cc1ccccc1)C(=O)N[C@H](C(=O)N[C@@H](C)C(=O)N[C@@H](Cc1c[nH]c2ccccc12)C(=O)N[C@@H](CC(C)C)C(=O)N[C@H](C(=O)N[C@@H](CCCNC(=N)N)C(=O)NCC(=O)N[C@@H](CCCNC(=N)N)C(=O)NCC(=O)O)C(C)C)[C@@H](C)CC)C(=O)O [liraglutide, Liraglutide]
metabolic stability with DPP-4: percent parent peptide remaining with respect to time, compared in words ([1]; 37°C, 2, 4, 8, 24 hr (GLP-1 0, 5, 15, 30, 60 min), LC-HRMS, Fig 12a): digested faster than the other compounds | site of cleavage (amide hydrolysis) by DPP-4 ([1]; 37°C, metabolite structures from LC-HRMS/MS (Mass-MetaSite)): mainly metabolized by DPP-4 at the SoC Ala-Glu | metabolic stability with NEP: percent parent peptide remaining with respect to time, compared in words (neprilysin (NEP)): digested faster than the other compounds; also recorded: NEP acted slower as compared to DPP-4

metabolic stability with chymotrypsin: percent parent peptide remaining with respect to time, compared in words (chymotrypsin; chymotrypsin 500 μg/mL in SIF pH 7.4-7.6, 10 μM peptide, 37°C, 0, 5, 15, 45, 120 min, LC-HRMS, internal standard melanotan, Fig 11b): digested slower than calcitonin
Molecule: CC[C@H](C)[C@@H]1NC(=O)[C@H](Cc2ccc(O)cc2)NC(=O)[C@@H](N)CSSC[C@@H](C(=O)N2CCC[C@H]2C(=O)N[C@@H](CC(C)C)C(=O)NCC(N)=O)NC(=O)[C@H](CC(N)=O)NC(=O)[C@H](CCC(N)=O)NC1=O [oxytocin, Oxytocin]
site of cleavage (amide hydrolysis) by chymotrypsin (chymotrypsin): cleavage of Leu-Gly; also recorded: Tyr-Ile (M1-38, cycle opening) | metabolic stability with trypsin: percent parent peptide remaining with respect to time, compared in words (trypsin; trypsin 500 μg/mL in SIF pH 7.4-7.6, 10 μM peptide, 37°C, 0, 5, 15, 45, 120 min, LC-HRMS, internal standard melanotan, Fig 11a): digested slower than calcitonin; also recorded: hydrolyzed slower than all other peptides

Molecule: Glp-His-Trp-Ser-Tyr-Ser-tBu-Leu-Arg-Pro-NHNHCONH2 [goserelin, Goserelin]
site of cleavage (amide hydrolysis) by trypsin (trypsin; trypsin 500 μg/mL in SIF, 10 μM peptide, 37°C, up to 120 min, metabolite structures from LC-HRMS/MS (Mass-MetaSite)): also when the C-terminal Pro was modified to Pro-NHNHCONH2 in goserelin

Molecule: Glp-His-Trp-Ser-Tyr-HisBzl-Leu-Arg-Pro-NHEt [histrelin, Histrelin, synthetic LHRH analogue, Sigma L2761]
metabolic stability with pancreatic elastase: percent parent peptide remaining with respect to time, compared in words (pancreatic elastase): slower than for leuprolide

Molecule: CCNC(=O)[C@@H]1CCCN1C(=O)[C@H](CCCNC(=N)N)NC(=O)[C@H](CC(C)C)NC(=O)[C@@H](COC(C)(C)C)NC(=O)[C@H](Cc1ccc(O)cc1)NC(=O)[C@H](CO)NC(=O)[C@H](Cc1c[nH]c2ccccc12)NC(=O)[C@H](Cc1cnc[nH]1)NC(=O)[C@@H]1CCC(=O)N1 [buserelin, Buserelin]
site of cleavage (amide hydrolysis) by chymotrypsin (chymotrypsin): amide hydrolysis of the Trp-Ser bond; also recorded: amide hydrolysis of the Tyr-D-Ser(tBu) bond
